# Patent publication US6664083B2, “Methods for racemizing N-acylamino acids and producing optically active amino acids” (Daichel Chemical Industries, Ltd., priority 2000, dated 2003)
# Test system: N-acylamino acid racemase
# Test: Influence of inhibitors on N-acylamino acid racemase activity
# Assay type: biochemical, Sebekia benihana
# Settings: not given
# Description: (§1) The activity of N-acylamino acid racemase was measured by the following method.
# (§2) To this reaction solution, 50 μl of enzyme solution was added, and the 500 μl of the mixture was allowed to react for 5 minutes (or for several ten minutes if the activity was low) at 30° C., followed by heating at 100° C. for 3 minutes to stop the reaction. Subsequently, 3 U of L-amino acylase were added to the mixture, and incubated for 1 hour at 30° C. The mixture was then heated at 100° C. for 3 minutes to stop the reaction.
# (§3) The amount of L-methionine produced was measured by TNBS method after the reaction was stopped. The enzyme activity was defined as 1 unit (U) when 1 μmole of N-acetyl-L-methionine was produced from N-acetyl-D-methionine in a minute.
# Influence of various enzyme inhibitors on N-acylamino acid racemase was examined in the enzymatic activity assay in which each inhibitor was added to the reaction solution at the final concentration of 1 mM. The mixture was incubated for 10 minutes at 30° C., using the reaction solution without any inhibitors as a control. […] For EDTA, enzyme activity was measured at a final concentration of 5 mM as well as 1 mM.
Compound,NAAR activity inhibited,Relative activity (%)
O=C(O)CI [Monoiodoacetic acid],inhibited,22%

# Same assay, conditions: inhibitor 1 mM, 10 minutes at 30° C.; activity in the absence of inhibitors taken as 100
row,Compound,Relative activity (%)
1,O[C@H](CS)[C@H](O)CS (racemic) [dithiothreitol],84%
2,"O=C(NNc1ccccc1)NNc1ccccc1 [1,5-Diphenylcarbonohydrazide]",68%
3,"c1ccc(-c2ccccn2)nc1 [2,2′-Bipyridyl]",55%
4,O=C(O)CN(CCN(CC(=O)O)CC(=O)O)CC(=O)O [EDTA],10%
5,NN.O=S(=O)(O)O [Hydrazinium Sulfate],69%
6,NO [Hydroxylammonium chloride],88%
7,[I-].[K+] [KI],97%
8,CCN1C(=O)C=CC1=O [N-ethylmaleimide],96%
9,[F-].[Na+] [NaF],94%
10,O=C(O)c1cc[c]([Hg][Cl])cc1 [p-chloromercuribenzoic acid],11%
11,O=S(=O)(F)Cc1ccccc1 [phenylmethanesulfonyl fluoride],84%

# Same assay, conditions: inhibitor 10 mM (table), 10 minutes at 30° C.; activity in the absence of inhibitors taken as 100
row,Compound,Relative activity (%)
1,O=C(O)CN(CCN(CC(=O)O)CC(=O)O)CC(=O)O [EDTA],0%

# Same assay, conditions: result in words
row,Compound,NAAR activity inhibited
1,O=C(O)CN(CCN(CC(=O)O)CC(=O)O)CC(=O)O [EDTA],inhibited
2,O=C(O)c1cc[c]([Hg][Cl])cc1 [p-chloromercuribenzoic acid],inhibited

# Test system: N-acylamino acid racemase
# Test: Influence of metal ions on N-acylamino acid racemase activity
# Assay type: biochemical, Sebekia benihana
# Settings: 1 mM
# Description: as §1, §2, §3
# Influence of various metal ions on N-acylamino acid racemase was examined in the enzymatic activity assay in which cobalt chloride (final concentration 1 mM) to be added was omitted from the reaction solution and instead each ion was added to the reaction at a final concentration of 1 mM. The mixture was incubated for 5 minutes at 30° C., and the amount of L-methionine produced was measured to determine the effect of each metal ion on the N-acylamino acid racemase, using the reaciton solution without any metal ions as a control. The enzyme activities were represented as relative activities, taking the activity in the presence of Co as 100.
row,Compound,effect of metal ion on NAAR activity
1,O.O.O.O.O.O.[Cl-].[Cl-].[Co+2] [CoCl2.6H2O],effect of activation

# Same assay, conditions: metal ion 1 mM instead of cobalt chloride, 5 minutes at 30° C.; activity in the presence of Co taken as 100
row,Compound,Relative activity (%)
1,O.O.[Ba+2].[Cl-].[Cl-] [BaCl2.2H2O],14%
2,O.O.[Ca+2].[Cl-].[Cl-] [CaCl2.2H2O],12%
3,O.O.O.O.O.O.[Cl-].[Cl-].[Co+2] [CoCl2.6H2O],100%
4,O.O.[Cl][Cu][Cl] [CuCl2.2H2O],3%
5,[Cl][Fe][Cl] [FeCl2.nH2O],34%
6,O.O.O.O.O.O.[Cl-].[Cl-].[Cl-].[Fe+3] [FeCl3.6H2O],6%
7,[Cl-].[K+] [KCl],16%
8,O.O.O.O.O.O.[Cl-].[Cl-].[Mg+2] [MgCl2.6H2O],27%
9,O.O.O.O.[Cl][Mn][Cl] [MnCl2.4H2O],60%
10,[Cl-].[Na+] [NaCl],17%
11,O.O.O.O.O.O.[Cl][Ni][Cl] [NiCl2.6H2O],37%
12,O.O.[Cl][Sn][Cl] [SnCl2.2H2O],9%
13,[Cl-].[Cl-].[Zn+2] [ZnCl2],20%
14,Al2(SO4)3.14˜18H2O,3%

# Test system: N-acylamino acid racemase
# Test: Racemization of N-acetyltryptophan by N-acylamino acid racemase, optical purity by chiral HPLC
# Assay type: biochemical, Sebekia benihana
# Settings: 0.5% substrate, 1 U NAAR, pH 6.5, 30° C. overnight
# Description: A reaction solution containing 100 mM potassium phosphate buffer (pH 6.5), 1 U of the N-acylamino acid racemase, and 0.5% N-acetyl-L-tryptophan or N-acetyl-D-tryptophan was incubated at 30° C. overnight. Racemization was verified by measuring optical purity of tryptophan in the reaction solution by HPLC. The optical purity of N-acetyltryptophan was determined as follows. N-acetyltryptophan was extracted from the reaction solution with methyl ethyl ketone. After the solvent was removed, the reaction product was resolved by liquid chromatography using an optical resolution column. The measurement was carried out at room temperature, using CHIRALPAK WH (DAICEL CHEMICAL INDUSTRIES, LTD.) as the optical resolution column, and aqueous solution of 0.25 mM cupric sulfate as eluent (flow rate, 1 ml/min; detection wavelength, 254 nm) to determine the quantity and optical purity. As a result, it was shown that N-acetyltryptophan produced from either N-acetyl-L-tryptophan or N-acetyl-D-tryptophan by the method of the present invention was a racemate with optical purity of nearly 0% ee at the end of the reaction.
row,Compound,optical purity of N-acetyltryptophan at the end of the reaction
1,CC(=O)N[C@H](Cc1c[nH]c2ccccc12)C(=O)O [N-acetyl-D-tryptophan],~0 % ee
2,CC(=O)N[C@@H](Cc1c[nH]c2ccccc12)C(=O)O [N-acetyl-L-tryptophan],~0 % ee

# Test system: N-acylamino acid racemase
# Test: Substrate specificity of N-acylamino acid racemase (enzyme activity assay, TNBS method)
# Assay type: biochemical, Sebekia benihana
# Settings: substrate 20 mM, 1 mM cobalt chloride, pH 7.5, 30° C.; activity on N-acetyl-D-methionine taken as 100
# Description: The activity of N-acylamino acid racemase was measured by the following method. First, the following reaction solution was prepared. [table] […] Subsequently, 3 U of L-amino acylase were added to the mixture, and incubated for 1 hour at 30° C. The mixture was then heated at 100° C. for 3 minutes to stop the reaction. The amount of L-methionine produced was measured by TNBS method after the reaction was stopped. […] Substrate specificity was determined by measuring enzyme activities according to the above-mentioned enzyme assay, with varying the substrate in the reaction.
row,Compound,Relative activity (%)
1,CC(=O)N[C@H](C(=O)O)C(C)C [N-acctylvaline],146%
2,CC(=O)N[C@@H](C)C(=O)O [N-acetylalanine],86%
3,CC(=O)N[C@@H](CC(=O)O)C(=O)O [N-acetylaspartic acid],68%
4,CC(=O)N[C@@H](CC(C)C)C(=O)O [N-acetylleucine],78%
5,CSCC[C@H](NC(C)=O)C(=O)O [N-acetylmethionine],100%
6,CC(=O)N[C@@H](Cc1ccccc1)C(=O)O [N-acetylphenylalanine],74%
7,CC(=O)N[C@@H](Cc1c[nH]c2ccccc12)C(=O)O [N-acetyltryptophan],69%
